Assay results reported in patent publication US20200054608A1, “ALPHA ADRENERGIC AGONISTS FOR THE TREATMENT OF TISSUE TRAUMA” (Allergan, Inc., priority 2013, published 2020).

Columns and labels:
SKH1 hairless mice [1] = test: UVB-induced sunburn model: erythema on back skin measured with a chromameter; format: in vivo
Method: (§1) A xenon arc lamp (Newport Corp, USA) was used as a source of UVB. SKH1 hairless mice, lying on their stomachs with their left sides covered, were exposed to 120 mJ/cm2 UVB radiation. Regions of back skin were treated topically with oxymetazoline hydrochloride 0.5% gel at 20 min, 4 hr or 8 hr post-UVB. An additional group had the vehicle applied topically at 20 min post UVB exposure. Erythema on the exposed and unexposed back was measured using a chromameter (Konica Minolta) at 2 and 4 hr post-UVB exposure. Skin samples were collected 48 hr following UVB exposure and examined histologically to assess the extent of injury.

SKH1 hairless mice [2] = test: UVB-induced sunburn model: histological examination of skin samples 48 hr following UVB exposure; format: in vivo; conditions: for outcome of healing (overall healing, histology) / mice with overall epidermal healing fair to good: 48 hr; for outcome of healing (overall healing, histology): hydrochloride; for mice with overall epidermal healing fair to good: vehicle 0%
Method: as §1

For oxymetazoline hydrochloride, the inhibition of erythema (SKH1 hairless mice [1]; 0.5% topical gel applied 20 minutes following 120 mJ/cm2 UVB, 2 hr timepoint, p<0.001) was “almost completely inhibited the erythema”, the inhibition of erythema (SKH1 hairless mice [1]; 0.5% topical gel applied 20 minutes following UVB, 4 hr post-UVB exposure) was “no inhibition of the erythema” and the epidermal separation (SKH1 hairless mice [2]; 0.5% topical applied 20 minutes post UVB, 48 hours, n=6) was “reduced the occurrence and/or severity of epidermal separation”. For the same substance, the “outcome of healing (overall healing, histology)” value (SKH1 hairless mice [2]; 0.5% topical applied 20 minutes post UVB, vs vehicle controls) was “potentially improved the outcome”, the “outcome of healing (overall healing, histology)” value (SKH1 hairless mice [2]; 0.5% topical applied 20 minutes post UVB, vs vehicle controls, listed as oxymetazoline) was “slightly improved the outcome of healing” and the epidermal separation (SKH1 hairless mice [2]; 0.5% topical applied 4 hours post UVB, 48 hours, n=6) was “reduced the occurrence and/or severity of epidermal separation”. The “outcome of healing (overall healing, histology)” value (SKH1 hairless mice [2]; 0.5% topical applied 4 hours post UVB, vs concurrent and historical vehicle controls) was “more positive outcome”, the “outcome of healing (overall healing, histology)” value (SKH1 hairless mice [2]; 0.5% topical applied 4 hours post UVB, vs concurrent and historical vehicle controls, listed as oxymetazoline) was “improved the outcome of healing” and the “adaptive response in histological sections (epidermal proliferation, adaptive hyperplasia)” value (SKH1 hairless mice [2]; 0.5% topical applied 8 hours following injury, skin collected at 48 hours, vs vehicle-treated) was “greater degree of a positive adaptive response”. For the same substance, the “epidermal hyperplasia (adaptive healing response)” value (SKH1 hairless mice [2]; 0.5% topical applied 8 hours following the injury, 48 hours, n=6) was “resulted in more individuals who had progressed to advanced healing”, the epidermal separation (SKH1 hairless mice [2]; 0.5% topical applied 8 hours post UVB, 48 hours, n=6) was “reduced the occurrence and/or severity of epidermal separation” and the “outcome of healing (overall healing, histology)” value (SKH1 hairless mice [2]; 0.5% topical applied 8 hours post UVB, vs concurrent and historical vehicle controls) was “more positive outcome”. For the same substance, the “outcome of healing (overall healing, histology)” value (SKH1 hairless mice [2]; 0.5% topical applied 8 hours post UVB, vs concurrent and historical vehicle controls, listed as oxymetazoline) was “improved the outcome of healing”, the “mice with overall epidermal healing fair to good” value (“mice” for short) (SKH1 hairless mice [2]; 0.5% topical applied at 20 minutes post UVB, n=6) was 33% and the “mice” value (SKH1 hairless mice [2]; 0.5% topical applied at 4 hours post UVB, n=6) was 50%. For the same substance, the “mice” value (SKH1 hairless mice [2]; 0.5% topical applied at 8 hours post UVB, n=6) was 67%.
